Test results: article PMC7993727, “Discovery of a novel AR/HDAC6 dual inhibitor for prostate cancer treatment” (Aging (Albany NY), 2021)

Assays:
VCaP xenograft tumors = assay: castration-resistant VCaP xenograft mouse model; assay type: in vivo, NOD-SCID mice
From the text: Figure 4 Zeta55 inhibits tumor growth in a CRPC xenograft model. (A) Percentage change in individual tumor volume of NOD-SCID mice with subcutaneous tumor xenograft grown from VCaP cells. NOD-SCID mice were castrated when the tumor volumes reached about 250mm^3 on 63 days after subcutaneous injection of VCaP cells. […]. Tumor sizes were monitored twice a week after treatment. (B) Mean tumor volumes (mm^3, +SEM) of NOD-SCID mice after treatment. (C) Mean body weight (g, +SEM) of NOD-SCID mice after treatment. *, P < 0.01 vs. vehicle.
The animal protocols used in this study were evaluated and approved by the Xiangya Hospital Medical ethics committee of Central South University. NOD-SCID mice were purchased from Hunan SJA Laboratory Animal Co. Ltd. with a quality license and raised in the SPF Laboratory Animal Room of the Department of Laboratory Zoology at Central South University. Briefly, VCaP cells were suspended in DMEM and Matrigel (BD) (1:1), and 5×10^6 cells/100 μl were subcutaneously injected into a 7-week-old male NOD-SCID mouse. […]. VCaP xenografts were measured twice per week in two dimensions (L and W) by a Vernier caliper, and the tumor volume was calculated as W^2×L/2 (mm^3).
Formalin-fixed, paraffin-embedded xenograft tissue sections were used for immunohistochemistry. TUNEL staining was performed according to the instructions in the TUNEL kit (KeyGEN). Tissue sections were deparaffinized and then boiled in 0.01 mol/L sodium citrate buffer (pH 6.0) in a kilowatt microwave oven for 10 minutes to retrieve cell antigens. Ki67 (Abcam, ab15580) or AR (SANTA, sc-7305) was used as the primary antibody. All tissue sections were immunohistochemically stained using the avidin-biotin-peroxidase method and were counterstained with hematoxylin. The staining intensities were evaluated at 100× magnification.

HDAC6 = target: T1, HDAC6 (Homo sapiens, UniProt Q9UBN7); assay: acetylation of α-tubulin (HDAC6 substrate) in VCaP cells, Western blot; assay type: cell-based; settings: 24 hours
T1 sequence (Q9UBN7 1-1215): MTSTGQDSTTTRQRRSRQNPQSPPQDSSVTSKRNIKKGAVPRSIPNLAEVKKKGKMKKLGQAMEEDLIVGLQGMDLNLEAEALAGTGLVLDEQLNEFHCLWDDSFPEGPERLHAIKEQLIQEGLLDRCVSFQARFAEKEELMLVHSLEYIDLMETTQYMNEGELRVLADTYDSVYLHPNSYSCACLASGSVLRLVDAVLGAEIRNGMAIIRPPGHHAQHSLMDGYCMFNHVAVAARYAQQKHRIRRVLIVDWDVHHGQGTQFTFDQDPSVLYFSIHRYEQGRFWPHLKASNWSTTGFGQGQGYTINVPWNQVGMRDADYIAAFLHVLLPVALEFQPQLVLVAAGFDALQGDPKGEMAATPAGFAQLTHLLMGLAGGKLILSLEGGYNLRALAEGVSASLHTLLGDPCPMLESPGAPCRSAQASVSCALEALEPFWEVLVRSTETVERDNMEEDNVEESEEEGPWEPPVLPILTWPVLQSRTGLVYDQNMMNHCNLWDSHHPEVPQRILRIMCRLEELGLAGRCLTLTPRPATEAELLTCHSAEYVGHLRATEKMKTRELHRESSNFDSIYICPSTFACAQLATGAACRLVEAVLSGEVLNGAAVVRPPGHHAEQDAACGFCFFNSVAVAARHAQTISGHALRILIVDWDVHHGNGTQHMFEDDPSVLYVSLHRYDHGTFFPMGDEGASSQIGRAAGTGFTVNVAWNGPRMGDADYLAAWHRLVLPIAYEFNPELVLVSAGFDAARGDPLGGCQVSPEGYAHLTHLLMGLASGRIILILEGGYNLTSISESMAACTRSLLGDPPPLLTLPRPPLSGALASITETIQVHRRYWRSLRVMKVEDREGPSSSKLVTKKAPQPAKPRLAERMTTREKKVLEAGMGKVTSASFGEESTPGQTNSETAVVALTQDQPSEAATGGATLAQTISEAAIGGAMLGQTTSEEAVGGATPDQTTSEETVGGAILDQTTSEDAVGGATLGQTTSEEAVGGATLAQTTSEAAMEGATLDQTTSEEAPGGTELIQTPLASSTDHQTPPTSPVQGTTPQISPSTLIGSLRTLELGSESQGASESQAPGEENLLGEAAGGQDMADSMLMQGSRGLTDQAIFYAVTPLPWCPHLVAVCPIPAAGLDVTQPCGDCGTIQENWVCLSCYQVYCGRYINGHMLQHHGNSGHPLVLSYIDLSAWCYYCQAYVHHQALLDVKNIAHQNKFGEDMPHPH
Description: RNA expression level was analyzed by qRT-PCR and protein expression level was analyzed by Western blot. […] (I) Representative immunofluorescence microscopic images of VCaP cells for checking the subcellular localization of AR.
To evaluate the HDAC6 inhibition ability of Zeta55 in VCaP cells, the acetylation status of α-tubulin protein (a HDAC6 substrate) was assessed using western blot. […] We assessed the protein level of AR in VCaP cells.
The whole-cell extracts were prepared in lysis buffer with a protease inhibitor cocktail (Bimake), while the xenograft tissue extracts were prepared in 0.5% Nonidet P 40 Substitute solution (Biosharp) with cocktail protease inhibitor (Bimake). Each sample containing 30 μg of total protein was loaded onto 10% SDS-PAGE and electrotransferred onto polyvinylidene fluoride membranes. The membranes were blocked with 5% skimmed milk in PBST at room temperature for 2 hours and incubated with primary antibodies at 4° C overnight. After the membranes were washed with PBST three times, they were incubated with horseradish peroxidase-conjugated anti-rabbit or anti-mouse secondary antibody at room temperature for 1 hour. Chemiluminescent detection was performed with WesternBright ECL (Advansta). The immunoblots were visualized using the FluorChem FC3 system (ProteinSimple).

Compound: N#Cc1ccc(N2C(=O)C3(CCC3)N(c3ccc(C(=O)NO)c(F)c3)C2=S)cc1C(F)(F)F [Zeta55]
- antitumor activity (VCaP xenograft tumors; 30 mg/kg/d oral, 49 days, compared with MDV3100 30 mg/kg/d): slightly better antitumor activity than MDV3100
- tumors with tumor regression (VCaP xenograft tumors; 60 mg/kg/d oral, 49 days, n=6, castrated NOD-SCID mice): 5 of 6
- weights of mice during treatment (VCaP xenograft tumors; 30 and 60 mg/kg daily oral): did not decrease significantly
- expression of AR and PSA in treated tumors (VCaP xenograft tumors; immunohistochemical and Western blot analysis, compared to MDV3100 and vehicle): decreased expression of AR and PSA
- Ki-67 staining of tumor xenografts (VCaP xenograft tumors; mouse, in vivo): inhibited tumor cell proliferation
- TUNEL staining of tumor xenografts (VCaP xenograft tumors; mouse, in vivo): induced apoptosis
- α-tubulin acetylation (HDAC6): enhanced α-tubulin acetylation in a dose-dependent manner
